Assay results as given in publication PMC9774391 (ACS Omega, 2022).

Assays:
MAO-A = target: T1, MAO-A (Homo sapiens, UniProt P21397); assay: In vitro MAO-A inhibition assay (fluorometric); assay type: biochemical; conditions: for inhibition at 1000 µM: 10^–3 M; for inhibition at 100 µM: 10^–4 M
T1 sequence (P21397 1-527): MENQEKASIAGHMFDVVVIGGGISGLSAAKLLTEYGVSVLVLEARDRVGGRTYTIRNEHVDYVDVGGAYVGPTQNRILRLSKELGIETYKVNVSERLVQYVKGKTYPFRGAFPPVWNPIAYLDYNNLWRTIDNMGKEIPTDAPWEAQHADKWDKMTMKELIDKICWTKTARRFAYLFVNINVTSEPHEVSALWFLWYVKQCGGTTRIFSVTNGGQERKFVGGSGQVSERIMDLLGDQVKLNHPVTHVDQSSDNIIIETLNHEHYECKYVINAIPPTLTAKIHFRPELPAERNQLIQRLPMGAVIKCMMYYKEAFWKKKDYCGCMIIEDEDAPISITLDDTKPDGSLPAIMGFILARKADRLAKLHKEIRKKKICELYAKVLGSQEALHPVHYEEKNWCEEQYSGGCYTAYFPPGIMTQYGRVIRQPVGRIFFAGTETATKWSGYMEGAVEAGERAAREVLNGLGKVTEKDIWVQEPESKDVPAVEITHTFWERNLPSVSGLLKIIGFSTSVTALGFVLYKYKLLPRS

AChE [1] = target: T2, AChE (Homo sapiens, UniProt P22303); assay: Enzyme kinetics on AChE (Lineweaver–Burk); assay type: biochemical
T2 sequence (P22303 32-614): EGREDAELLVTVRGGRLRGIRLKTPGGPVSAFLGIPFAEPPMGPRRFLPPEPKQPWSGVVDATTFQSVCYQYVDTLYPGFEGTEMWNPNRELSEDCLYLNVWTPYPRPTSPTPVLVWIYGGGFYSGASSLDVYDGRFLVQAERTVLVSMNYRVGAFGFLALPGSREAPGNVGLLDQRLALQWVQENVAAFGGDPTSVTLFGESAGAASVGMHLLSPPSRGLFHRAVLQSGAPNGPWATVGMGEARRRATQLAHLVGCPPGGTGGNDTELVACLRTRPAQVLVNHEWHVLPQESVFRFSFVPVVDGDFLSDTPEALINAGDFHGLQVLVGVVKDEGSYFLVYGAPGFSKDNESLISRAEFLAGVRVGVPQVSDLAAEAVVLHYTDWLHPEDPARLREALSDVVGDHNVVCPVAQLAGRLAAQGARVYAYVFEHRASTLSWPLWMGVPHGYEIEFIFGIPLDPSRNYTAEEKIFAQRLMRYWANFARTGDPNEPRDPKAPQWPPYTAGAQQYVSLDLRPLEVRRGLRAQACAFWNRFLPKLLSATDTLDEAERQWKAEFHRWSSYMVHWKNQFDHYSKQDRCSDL
Method: (§1) The experimental procedures used in the kinetic investigations were identical to those used in the inhibition experiments. […]. Acetylthiocholine iodide (ATC) and butyrylthiocholine iodide (BTC) solutions were utilized as the substrates for the ChE enzymes, with serial dilutions at six different concentrations (600, 300, 150, 75, 37.5, and 18.75 μM). The tyramine substrate solution (concentrations ranging from 20 to 0.625 μM) was produced for the MAO enzymes at six different concentrations. Separate measurements were conducted both with and without an inhibitor. Using the Microsoft Office Excel 2013 program, the resulting absorbance values were compared to various substrate concentrations, and Lineweaver–Burk plots were created.[19]−[22]
(§2) The absorbance data from the experiments and the substrate concentrations were used to generate Lineweaver–Burk plots. The graphic’s x-axis stands for 1/[S] […] […]. The intersection of these four lines on the diagram was used to define the type of substrate and inhibitor reaction against the enzyme.
(§3) Reversible and irreversible inhibition of enzymes are the two categories that inhibition is commonly subdivided into. In irreversible inhibition, the inhibitor either creates a recalcitrant complex structure or establishes a covalent bond with the enzyme. […]

Cytotoxicity test (MTT) = assay type: cell-based; conditions: NIH/3T3 mouse embryonic fibroblast cells (ATCC CRL-1658), NIH/3T3 mouse fibroblast healthy cell line
Method: The NIH/3T3 cells were incubated according to the manufacturer’s recommendations. In 96-well plates, NIH/3T3 cells were seeded at a density of 1 × 10^4 cells per well. The MTT test was conducted in line with the previously mentioned standards.[19],[22],[23],[28],[30]

Beta Amyloid 1–42 (Aβ42) = target: T3, Beta Amyloid 1–42 (Aβ42) (Homo sapiens, UniProt P05067); assay: Beta Amyloid 1–42 (Aβ42) inhibitor screening assay; assay type: biochemical; conditions: for inhibition at 1000 µM: 10^–3 M; for inhibition at 1000 µM / inhibition at 100 µM: read-out: % β-amyloid plaque inhibition; for inhibition at 100 µM: 10^–4 M; for IC50: read-out: IC50 on β-amyloid plaque aggregation
T3 construct: The Beta Amyloid 1–42 (Aβ42) Ligand Screening Assay kit; purchased BioVision, Milpitas, CA
T3 sequence (P05067 672-713 limits assumed): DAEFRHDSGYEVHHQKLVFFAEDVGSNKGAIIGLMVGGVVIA
From the text: The Beta Amyloid 1–42 (Aβ42) Ligand Screening Assay kit (BioVision, Milpitas, CA) technique based on the fluorometric approach served as the basis for the experimental process.[21],[28],[29]

MAO-B = target: T4, MAO-B (Homo sapiens, UniProt P27338); assay: In vitro MAO-B inhibition assay (fluorometric); assay type: biochemical; conditions: for inhibition at 1000 µM: 10^–3 M; for inhibition at 100 µM: 10^–4 M; for inhibition at 10 µM: 10^–5 M; for inhibition at 1 µM: 10^–6 M; for inhibition at 0.1 µM: 10^–7 M; for inhibition at 0.01 µM: 10^–8 M; for inhibition at 0.001 µM: 10^–9 M
T4 sequence (P27338 1-520): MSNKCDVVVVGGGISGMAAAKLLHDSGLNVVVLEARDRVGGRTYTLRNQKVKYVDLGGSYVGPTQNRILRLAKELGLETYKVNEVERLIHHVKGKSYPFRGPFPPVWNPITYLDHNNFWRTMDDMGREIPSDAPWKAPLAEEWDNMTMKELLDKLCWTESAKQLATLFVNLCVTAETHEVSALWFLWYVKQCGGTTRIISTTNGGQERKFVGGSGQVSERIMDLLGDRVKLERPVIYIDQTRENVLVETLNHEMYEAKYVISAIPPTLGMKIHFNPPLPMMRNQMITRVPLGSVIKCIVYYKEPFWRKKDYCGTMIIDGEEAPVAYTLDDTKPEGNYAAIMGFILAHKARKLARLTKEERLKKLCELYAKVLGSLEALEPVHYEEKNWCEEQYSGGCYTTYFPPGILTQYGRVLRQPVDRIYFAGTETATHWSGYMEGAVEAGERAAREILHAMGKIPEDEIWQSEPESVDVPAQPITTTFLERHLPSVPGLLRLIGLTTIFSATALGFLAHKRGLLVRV

[2] = DPPH free-radical scavenging activity assay; conditions: serial dilution 10^–3–10^–9 M; read-out: IC50 on DPPH antioxidant activity
Method: This approach is based on evaluating the free-radical scavenging abilities of the stable 1,1-diphenyl-2-picrylhydrazyl (DPPH) radical. To create the DPHH solution, 9.86 mg of DPPH was weighed and diluted to 25 mL with methanol. The test wells were then filled with 100 μL of the DPPH solution and 100 μL of the test solutions. Only 200 μL of methanol was used for the blank reading, while the control reading required the usage of 100 μL each of methanol and the DPPH solution. Following incubation, a spectrophotometric measurement at 517 nm was carried out.[26],[27]

BChE [3] = target: T5, BChE (Homo sapiens, UniProt P06276); assay: biochemical; conditions: for inhibition at 1000 µM: 10^–3 M; for inhibition at 100 µM: 10^–4 M; for inhibition at 10 µM: 10^–5 M; for inhibition at 1 µM: 10^–6 M; for inhibition at 0.1 µM: 10^–7 M; for inhibition at 0.01 µM: 10^–8 M; for inhibition at 0.001 µM: 10^–9 M
T5 sequence (P06276 29-602): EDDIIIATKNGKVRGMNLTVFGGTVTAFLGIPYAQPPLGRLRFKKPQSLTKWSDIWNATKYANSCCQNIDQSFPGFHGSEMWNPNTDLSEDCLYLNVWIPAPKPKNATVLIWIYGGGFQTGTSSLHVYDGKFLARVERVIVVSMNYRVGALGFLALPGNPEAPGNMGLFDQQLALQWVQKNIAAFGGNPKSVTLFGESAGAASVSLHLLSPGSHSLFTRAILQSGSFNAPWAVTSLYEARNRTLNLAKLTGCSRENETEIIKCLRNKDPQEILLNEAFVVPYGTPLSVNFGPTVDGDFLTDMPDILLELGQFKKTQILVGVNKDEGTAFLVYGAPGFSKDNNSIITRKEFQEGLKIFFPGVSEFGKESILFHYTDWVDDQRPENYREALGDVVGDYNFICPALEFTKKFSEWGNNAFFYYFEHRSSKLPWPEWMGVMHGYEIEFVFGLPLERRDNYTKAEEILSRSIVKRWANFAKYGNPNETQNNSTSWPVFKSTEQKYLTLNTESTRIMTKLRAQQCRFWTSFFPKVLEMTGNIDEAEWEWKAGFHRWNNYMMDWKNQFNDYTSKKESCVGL
Method: (§4) According to the modified Ellman approach outlined in our team’s earlier work, the AChE and BChE inhibitory activities of the obtained compounds were evaluated.[18]−[21]

AChE [4] = target: T2, AChE; assay: biochemical; conditions: for inhibition at 1000 µM: 10^–3 M; for inhibition at 100 µM: 10^–4 M; for inhibition at 10 µM: 10^–5 M; for inhibition at 1 µM: 10^–6 M; for inhibition at 0.1 µM: 10^–7 M; for inhibition at 0.01 µM: 10^–8 M; for inhibition at 0.001 µM: 10^–9 M
Method: as §4

BChE [5] = target: T5, BChE; assay: Enzyme kinetics on BChE (Lineweaver–Burk); assay type: biochemical
Method: as §1, §2, §3

SMILES	inhibition at 1000 µM (MAO-A)	IC50 (Cytotoxicity test (MTT))	inhibition at 100 µM (Beta Amyloid 1–42 (Aβ42))	IC50 (MAO-B)	inhibition at 1000 µM (MAO-B)	inhibition at 100 µM (MAO-B)	inhibition at 10 µM (MAO-B)	inhibition at 1 µM (MAO-B)	inhibition at 0.1 µM (MAO-B)	inhibition at 0.01 µM (MAO-B)	inhibition at 0.001 µM (MAO-B)	inhibition at 1000 µM (BChE [3])	inhibition at 100 µM (BChE [3])	IC50 (AChE [4])	inhibition at 1000 µM (AChE [4])	inhibition at 100 µM (AChE [4])	inhibition at 10 µM (AChE [4])	inhibition at 1 µM (AChE [4])	inhibition at 0.1 µM (AChE [4])	inhibition at 0.01 µM (AChE [4])	other results
CCCN(C)CC(=O)Nc1ccc(/C=C2\Cc3ccc(OC)cc3C2=O)cc1 [D29]	≥ 90%	73600 ± 1760 nM	71.9 ± 1.88%	41.2 ± 1.8 nM	91.8 ± 1.37%	87.6 ± 1.25%	82.2 ± 1.21%	74.2 ± 1.3%	66 ± 1.84%	40.3 ± 0.745%	20.4 ± 0.628%	61.1 ± 0.99%	26.914 ± 0.019%	22.4 ± 0.8 nM	97.2 ± 1.32%	94.3 ± 1.46%	91.8 ± 1.21%	88.3 ± 1.02%	75.6 ± 0.974%	34.3 ± 0.857%	IC50 (MAO-A): 112 ± 4.2 nM; inhibition at 10 µM (MAO-A; 10^–5 M): 77.4 ± 1.13%; inhibition at 1 µM (MAO-A; 10^–6 M): 67.3 ± 1.08%; inhibition at 0.1 µM (MAO-A; 10^–7 M): 49.4 ± 0.567%; inhibition at 0.01 µM (MAO-A; 10^–8 M): 34 ± 0.422%; inhibition at 0.001 µM (MAO-A; 10^–9 M): 24.6 ± 0.328%; fold stronger MAO-A inhibition compared to moclobemide (MAO-A; ratio of IC50 values): 50 ×; type of inhibition of AChE (AChE [1]; Lineweaver–Burk plots): mixed inhibition; Ki (AChE [1]; secondary plot of Lineweaver–Burk data, read-out: steady-state inhibition constant (Ki), AChE): 18.5 nM; inhibition at 1000 µM (Beta Amyloid 1–42 (Aβ42)): 80.3 ± 2.05%; IC50 (Beta Amyloid 1–42 (Aβ42)): 124 ± 4.9 nM; IC50 [2]: 188 ± 8 nM; inhibition at 0.001 µM (AChE [4]): 20.1 ± 0.357%
CCCN(C)CC(=O)Nc1ccc(/C=C2\Cc3cc(OC)c(OC)cc3C2=O)cc1 [D30]	74.1 ± 2.09%	601 ± 14.5 nM	81.5 ± 1.96%	45.6 ± 1.7 nM	97.5 ± 1.39%	90.2 ± 1.47%	82.5 ± 1.38%	74.6 ± 1.29%	66 ± 0.966%	38.1 ± 0.458%	19.8 ± 0.632%	99.6 ± 2.02%	46.43 ± 0.408%	25.7 ± 0.9 nM	98.2 ± 1.37%	96.6 ± 1.28%	91.8 ± 1.21%	88.3 ± 1.1%	74.3 ± 1.05%	36.6 ± 0.627%	inhibition at 100 µM (MAO-A): 28.3 ± 1.08%; inhibition at 1000 µM (Beta Amyloid 1–42 (Aβ42)): 89.6 ± 1.86%; IC50 (Beta Amyloid 1–42 (Aβ42)): 178 ± 7.4 nM; IC50 [2]: 246 ± 11 nM; inhibition at 0.001 µM (AChE [4]): 16.4 ± 0.421%
COc1ccc2c(c1)C(=O)/C(=C/c1ccc(NC(=O)CN(C)CCCN(C)C)cc1)C2 [D38]	95 ± 2.39%	6810 ± 118 nM	> 50%	35.9 ± 1.3 nM	94.8 ± 1.43%	88.6 ± 1.38%	84.6 ± 1.58%	78.2 ± 1.41%	62.5 ± 0.925%	42.3 ± 0.623%	20.7 ± 0.318%	93.3 ± 1.37%	90.6 ± 1.3%	47.3 ± 1.6 nM	93.2 ± 1.72%	90.5 ± 1.3%	81.6 ± 1.17%	74 ± 0.956%	68.2 ± 0.862%	37.2 ± 0.562%	inhibition at 100 µM (MAO-A): 24.1 ± 0.853%; IC50 [2]: 190 ± 7.8 nM; IC50 (BChE [3]): 78.2 ± 2.9 nM; inhibition at 10 µM (BChE [3]): 85.4 ± 1.3%; inhibition at 1 µM (BChE [3]): 78.6 ± 1.11%; inhibition at 0.1 µM (BChE [3]): 58.7 ± 0.952%; inhibition at 0.01 µM (BChE [3]): 28.8 ± 0.714%; inhibition at 0.001 µM (BChE [3]): 18.4 ± 0.633%; inhibition at 0.001 µM (AChE [4]): 19.7 ± 0.711%
COc1cc2c(cc1OC)C(=O)/C(=C/c1ccc(NC(=O)CN(C)CCCN(C)C)cc1)C2 [D39]	89.8 ± 1.44%	12300 ± 416 nM	69.8 ± 0.778%	39.3 ± 1.1 nM	95.3 ± 1.06%	87.2 ± 1.82%	84.8 ± 1.64%	78.6 ± 1.25%	60.2 ± 0.956%	36.2 ± 0.488%	25.6 ± 0.359%	92.8 ± 1.36%	87.3 ± 1.25%	45.8 ± 0.9 nM	92.6 ± 1.62%	88.7 ± 1.19%	81.7 ± 1.16%	73.3 ± 0.952%	64.3 ± 0.687%	40.2 ± 0.528%	inhibition at 100 µM (MAO-A): 36.2 ± 0.756%; type of inhibition of BChE (BChE [5]; Lineweaver–Burk plots): mixed inhibition; Ki (BChE [5]; secondary plot of Lineweaver–Burk data, read-out: steady-state inhibition constant (Ki), BChE): 61.7 nM; inhibition at 1000 µM (Beta Amyloid 1–42 (Aβ42)): ≥ 80%; IC50 (Beta Amyloid 1–42 (Aβ42)): 197 ± 7.9 nM; IC50 (BChE [3]): 75 ± 3.2 nM; inhibition at 10 µM (BChE [3]): 81.4 ± 1.33%; inhibition at 1 µM (BChE [3]): 73.7 ± 1.15%; inhibition at 0.1 µM (BChE [3]): 55.4 ± 0.678%; inhibition at 0.01 µM (BChE [3]): 34.7 ± 0.511%; inhibition at 0.001 µM (BChE [3]): 21.6 ± 0.485%; inhibition at 0.001 µM (AChE [4]): 20.5 ± 0.492%
